In patent US20250170140A1, “PHARMACEUTICAL COMPOSITION FOR PREVENTING OR TREATING CANCER COMPRISING CARNITINE ACYLCARNITINE CARRIER INHIBITOR AND PEROXISOMAL BETA OXIDATION INHIBITOR” (priority 2021, published 2025):
Like-named read-outs stand apart in the source and are kept apart here.

What was measured:
Type in all cases: cell-based
[1] = tested on: MIA PaCa-2; experiment: SRB assay, cancer cell growth, pancreatic cancer cell line MIA PaCa-2; conditions: for inhibition at 5 µM / inhibition at 10 µM: read-out: Inhibition rate of cancer cell growth (%) (Actual value)
Method: (§1) As a comparison, omeprazole (KN510) and trimetazidine (KN713), a 3-ketoacyl CoA thiolase inhibitor, were co-treated. […] After cell inoculation, 96-well cell culture plates were incubated for 24 hours before the addition of experimental drugs. […] The cells were then incubated in a CO2 incubator for 48 hours, after which the assay was terminated by the addition of cold TCA. Cells were fixed in situ by gently adding 50 μl of cold 50% (w/v) TCA (final concentration: 10% TCA) and incubated at 4° C. for 60 min. The supernatant was discarded, and the plate was washed five times with distilled water and air dried. Sulforhodamine B (SRB) solution (100 μl) of 0.4% (w/v) in 1% acetic acid was added to each well, and the plate was left at room temperature for 10 min. After staining, unbound dye was removed by washing five times with 1% acetic acid, and the plate was air-dried. The bound dye was then solubilized with 10 mM trizma base, and the absorbance was recorded at 515 nm using an automated plate reader. […] The predicted synergistic activity of a combination of the present invention can be calculated using the Colby Equation in Equation 1 (S.R. Colby, Weeds, 1967, pp. 15, 20-22): α and β are the measured anti-cancer activity of each compound alone, and E is the predicted anti-cancer activity of a mixture of α and β as a prediction. In the present invention, the actual measure of anti-cancer activity of the combination treatment was the inhibition rate of cancer cell growth (%), and the predicted value (E) of the combination treatment was measured by substituting it into the above Colby Equation.

[2] = tested on: MDA-MB-231 cells; experiment: SRB assay, breast cancer cell line MDA-MB-231
Method: as §1, with “20-22):” for “20-22): α and β are the measured anti-cancer activity of each compound alone, and E is the predicted anti-cancer activity of a mixture of α and β as a prediction.”

[3] = tested on: SK-MEL-5; experiment: SRB assay, melanoma cell line SK-MEL-5
Method: as §1, with “20-22):” for “20-22): α and β are the measured anti-cancer activity of each compound alone, and E is the predicted anti-cancer activity of a mixture of α and β as a prediction.”

[4] = tested on: SF295 cells; experiment: SRB assay, glioblastoma cell line SF295
Method: as §1, with “20-22):” for “20-22): α and β are the measured anti-cancer activity of each compound alone, and E is the predicted anti-cancer activity of a mixture of α and β as a prediction.”

[5] = tested on: PANC-1 cells; experiment: SRB assay, pancreatic cancer cell line PANC-1
Method: as §1, with “20-22):” for “20-22): α and β are the measured anti-cancer activity of each compound alone, and E is the predicted anti-cancer activity of a mixture of α and β as a prediction.”

[6] = tested on: U251 cells; experiment: SRB assay, glioblastoma cell line U251
Method: as §1, with “20-22):” for “20-22): α and β are the measured anti-cancer activity of each compound alone, and E is the predicted anti-cancer activity of a mixture of α and β as a prediction.”

[7] = tested on: AGS cells; experiment: SRB assay, stomach cancer cell line AGS
Method: as §1, with “20-22):” for “20-22): α and β are the measured anti-cancer activity of each compound alone, and E is the predicted anti-cancer activity of a mixture of α and β as a prediction.”

[8] = tested on: DU-145 cells; experiment: SRB assay, prostate cancer cells DU-145
Method: as §1, with “20-22):” for “20-22): α and β are the measured anti-cancer activity of each compound alone, and E is the predicted anti-cancer activity of a mixture of α and β as a prediction.”

[9] = tested on: PC-3 cells; experiment: SRB assay, prostate cancer cells PC-3
Method: as §1, with “20-22):” for “20-22): α and β are the measured anti-cancer activity of each compound alone, and E is the predicted anti-cancer activity of a mixture of α and β as a prediction.”

[10] = Homo sapiens, KN714 5 μM, read-out: Inhibition rate of cancer cell growth (%) (Actual value)
[11] = Homo sapiens, KN714 10 μM, read-out: Inhibition rate of cancer cell growth (%) (Actual value)

## CSc1ccc2c(c1)N(CCC1CCCCN1C)c1ccccc1S2 (centres unmarked) [KN714, 10-[2-(1-methyl-2-piperidyl)ethyl]-2-(methylthio)phenothiazine]
[1]; Homo sapiens, MIA PaCa-2, MIA PaCa-2 (Example 11), KN714 5 μM
  inhibition at 5 µM: 23.4%
[1]; Homo sapiens, MIA PaCa-2, MIA PaCa-2 (Example 11), KN714 10 μM
  inhibition at 10 µM: 106%
[1]; Homo sapiens, MIA PaCa-2, MIA PaCa-2, Example 1-3, Table 4, KN714 5 μM
  inhibition at 5 µM: 31.4%
[1]; Homo sapiens, MIA PaCa-2, MIA PaCa-2, Example 1-3, Table 4, KN714 10 μM
  inhibition at 10 µM: 105%
[1]; Homo sapiens, MIA PaCa-2, 48 hours, read-out: GI50 (Half maximal growth inhibition concentration)
  GI50: 1900 nM
[1]; MIA PaCa-2 (Example 11), KN714 5 μM
  Cancer cell growth rate Average (%): 76.62%
[1]; MIA PaCa-2 (Example 11), KN714 10 μM
  Cancer cell growth rate Average (%): −5.93%
[1]; MIA PaCa-2, Conc. 10^−5M, Table 1
  Cancer cell growth rate Average (%): −10.55%
[1]; MIA PaCa-2, Conc. 10^−6M, Table 1
  Cancer cell growth rate Average (%): 94.73%
[1]; MIA PaCa-2, Conc. 10^−7M, Table 1
  Cancer cell growth rate Average (%): 95.13%
[1]; MIA PaCa-2, Conc. 10^−8M, Table 1
  Cancer cell growth rate Average (%): 90.56%
[1]; MIA PaCa-2, Conc. 10^−9M, Table 1
  Cancer cell growth rate Average (%): 97.03%
[1]; MIA PaCa-2, Conc. 10^−10M, Table 1
  Cancer cell growth rate Average (%): 97.11%
[1]; MIA PaCa-2, Example 1-2, Table 2, KN714 5 μM
  Cancer cell growth rate Average (%): 68.62%
[1]; MIA PaCa-2, Example 1-2, Table 2, KN714 10 μM
  Cancer cell growth rate Average (%): −5.25%
[2]; [10]
  inhibition at 5 µM: 9.36%
[2]; [11]
  inhibition at 10 µM: 29.8%
[2]; KN714 5 μM
  Cancer cell growth rate Average (%): 90.64%
[2]; KN714 10 μM
  Cancer cell growth rate Average (%): 70.20%
[3]; [10]
  inhibition at 5 µM: 19.3%
[3]; [11]
  inhibition at 10 µM: 124%
[3]; KN714 5 μM
  Cancer cell growth rate Average (%): 80.69%
[3]; KN714 10 μM
  Cancer cell growth rate Average (%): −23.56%
[4]; Homo sapiens, SF-295, KN714 5 μM, read-out: Inhibition rate of cancer cell growth (%) (Actual value)
  inhibition at 5 µM: 16.5%
[4]; Homo sapiens, SF-295, KN714 10 μM, read-out: Inhibition rate of cancer cell growth (%) (Actual value)
  inhibition at 10 µM: 75.5%
[4]; KN714 5 μM
  Cancer cell growth rate Average (%): 83.54%
[4]; KN714 10 μM
  Cancer cell growth rate Average (%): 24.47%
[5]; [10]
  inhibition at 5 µM: 10.2%
[5]; [11]
  inhibition at 10 µM: 70%
[5]; KN714 5 μM
  Cancer cell growth rate Average (%): 89.85%
[5]; KN714 10 μM
  Cancer cell growth rate Average (%): 30.04%
[6]; Homo sapiens, U-251, KN714 5 μM, read-out: Inhibition rate of cancer cell growth (%) (Actual value)
  inhibition at 5 µM: 40%
[6]; Homo sapiens, U-251, KN714 10 μM, read-out: Inhibition rate of cancer cell growth (%) (Actual value)
  inhibition at 10 µM: 121%
[6]; KN714 5 μM
  Cancer cell growth rate Average (%): 59.99%
[6]; KN714 10 μM
  Cancer cell growth rate Average (%): −20.54%
[7]; [10]
  inhibition at 5 µM: 32.9%
[7]; [11]
  inhibition at 10 µM: 84.5%
[7]; KN714 5 μM
  Cancer cell growth rate Average (%): 67.13%
[7]; KN714 10 μM
  Cancer cell growth rate Average (%): 15.46%
[8]; [10]
  inhibition at 5 µM: 24.5%
[8]; [11]
  inhibition at 10 µM: 44.7%
[8]; KN714 5 μM
  Cancer cell growth rate Average (%): 75.49%
[8]; KN714 10 μM
  Cancer cell growth rate Average (%): 55.27%
[9]; [10]
  inhibition at 5 µM: 18.1%
[9]; [11]
  inhibition at 10 µM: 53%
[9]; KN714 5 μM
  Cancer cell growth rate Average (%): 81.94%
[9]; KN714 10 μM
  Cancer cell growth rate Average (%): 47.00%
